These results are taken from US6313132A, “Therapeutically active diarylpropylamines; their pharmaceutically acceptable salts; a method for their preparation and method for their use” (Pharmacia AB, priority 1999, dated 2001).

Where a name gives a salt, the structure may show the parent alone.

One test deals with T1, muscarinic receptor (Cavia porcellus, UniProt H0W1Z3).
T1 construct: Smooth muscle strips of the urinary bladder were dissected in a Krebs-Henseleit solution; from tissue; host or cells: guinea pig urinary bladder smooth muscle strips
T1 sequence (H0W1Z3 1-590): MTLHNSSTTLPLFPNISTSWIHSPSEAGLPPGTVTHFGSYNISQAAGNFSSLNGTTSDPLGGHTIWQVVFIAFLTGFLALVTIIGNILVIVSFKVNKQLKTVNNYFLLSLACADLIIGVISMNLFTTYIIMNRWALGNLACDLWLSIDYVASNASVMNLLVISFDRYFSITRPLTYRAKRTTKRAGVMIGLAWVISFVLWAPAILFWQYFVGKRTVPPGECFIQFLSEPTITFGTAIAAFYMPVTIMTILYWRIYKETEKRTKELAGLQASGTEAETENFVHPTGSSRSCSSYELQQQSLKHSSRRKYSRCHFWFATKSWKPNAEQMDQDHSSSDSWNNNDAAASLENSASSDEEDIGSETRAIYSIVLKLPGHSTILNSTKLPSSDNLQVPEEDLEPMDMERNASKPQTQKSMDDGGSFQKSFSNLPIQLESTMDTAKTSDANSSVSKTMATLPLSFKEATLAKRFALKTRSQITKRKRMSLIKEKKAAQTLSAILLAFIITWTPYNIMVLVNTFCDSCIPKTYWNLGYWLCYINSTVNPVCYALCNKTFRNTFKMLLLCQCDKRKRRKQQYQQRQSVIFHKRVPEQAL
In words: Functional in vitro studies: antagonism of carbachol-induced contraction of urinary bladder smooth muscle strips. The class given is cell-based, guinea pig.
Settings: not given
As for `CC(C)N(CCC(c1ccccc1)c1cnc[nH]1)C(C)C` (stereo not shown) [Example 36, N,N-Diisopropyl-3-(imidazol-4(5)-yl)-3-phenylpropanamine dihydrochloride], the antagonist dissociation constant (Kb) turned out to be 2640 nM.

Still in this test, the particulars now being: male guinea pig urinary bladder strips; carbachol agonist; 60 min incubation with antagonist; Krebs-Henseleit pH 7.4, 37° C.; KB from dose ratios (Schild); read-out: KB-value.
Regarding `CN(CCC(c1ccccc1)c1ccccc1O)C1CCC1` (stereo not shown) [Example 31, N-Cyclobutyl-N-methyl-3-(2-hydroxyphenyl)-3-phenylpropanamine hydrochloride], the Kb turned out to be 14 nM.
Still for that read-out and setting: with `CN(CCC(c1ccccc1)c1ccccc1O)C1CCCC1` (stereo not shown) [Example 32, N-Cyclopentyl-N-methyl-3-(2-hydroxyphenyl)-3-phenylpropanamine hydrochloride] the figure was 36 nM; with `CC(C)N(CCC(c1ccccc1)c1ccccc1N)C(C)C` (stereo not shown) [Example 33, N,N-Diisopropyl-3-(2-aminophenyl)-3-phenylpropanamine hydrochloride], 56 nM.
Still for that read-out and setting: the result for `CC(C)N(CCC(c1ccccc1)c1nc2ccccc2o1)C(C)C` (stereo not shown) [Example 34, N,N-Diisopropyl-3-(benzoxazol-2-yl)-3-phenylpropanamine, hydrochloride] reads 803 nM; that for `CC(C)N(CCC(c1ccccc1)c1cnco1)C(C)C` (stereo not shown) [Example 35, N,N-Diisopropyl-3-(oxazol-5-yl)-3-phenylpropanamine hydrochloride], 1770 nM.
Still for that read-out and setting: the result for `CC(C)N(CCC(c1ccccc1)c1ncco1)C(C)C` (stereo not shown) [Example 37, N,N-Diisopropyl-3-(oxazol-2-yl)-3-phenylpropanamine hydrochloride] reads 520 nM; that for `CC(C)N(CCC(c1ccccc1)c1nccs1)C(C)C` (stereo not shown) [Example 38, N,N-Diisopropyl-3-phenyl-3-(thiazol-2-yl)propanamine hydrochloride], 207 nM; that for `Cc1csc(C(CCN(C(C)C)C(C)C)c2ccccc2)n1` (stereo not shown) [Example 39, N,N-Diisopropyl-3-(4-methylthiazol-2-yl)-3-phenyl-propanamine hydrochloride], 235 nM.
Regarding `CC(C)N(CCC(c1ccccc1)c1cncs1)C(C)C` (stereo not shown) [Example 40, N,N-Diisopropyl-3-(thiazol-5-yl)-3-phenylpropanamine hydrochloride], the Kb was 814 nM.
Still for that read-out and setting: with `CC(C)N(CCC(c1cccs1)c1ccccc1O)C(C)C` (stereo not shown) [Example 41, N,N-Diisopropyl-3-(2-hydroxyphenyl)-3-(2-thienyl)-propanamine fumarate] the figure was 7.6 nM; with `CC(C)N(CCC(c1cccs1)c1ccc(O)cc1O)C(C)C` (stereo not shown) [Example 42, N,N-Diisopropyl-3-(2,4-dihydroxyphenyl)-3-(2-thienyl)propanamine], 286 nM; with `COc1ccccc1C(CCN(C(C)C)C(C)C)c1cccs1` (stereo not shown) [Example 43, N,N-Diisopropylamine-3-(2-methoxyphenyl)-3-(2-thienyl)propanamine, fumarate], 29 nM.
Same read-out and setting: with `COc1ccc(C(CCN(C(C)C)C(C)C)c2cccs2)c(OC)c1` (stereo not shown) [Example 44, N,N-Diisopropyl-3-(2,4-dimethoxyphenyl)-3-(2-thienyl)propanamine fumarate] the figure was 2290 nM; with `COc1cccc(C(CCN(C(C)C)C(C)C)c2cccs2)c1` (stereo not shown) [Example 45, N,N-Diisopropyl-3-(3-methoxyphenyl)-3-(2-thienyl)propanamine hydrochloride], 51 nM; with `COc1ccc(C(CCN(C(C)C)C(C)C)c2cccs2)cc1` (stereo not shown) [Example 46, N,N-Diisopropyl-3-(4-methoxyphenyl)-3-(2-thienyl)propanamine hydrochloride], 286 nM.
In the case of `COc1ccccc1C(CCN(C)C(C)C)c1cccs1` (stereo not shown) [Example 47, N-Isopropyl-N-methyl-3-(2-methoxyphenyl)-3-(2-thienyl)propanamine fumarate], the Kb is 91 nM.
For `CC(C)N(CCC(c1ccccc1)c1cccs1)C(C)C` (stereo not shown) [Example 48, N,N-Diisopropyl-3-phenyl-3-(2-thienyl)propanamine, hydrochloride], the Kb is 31 nM.
Take `CN(CCC(c1ccccc1)c1cccs1)C1CCCCC1` (stereo not shown) [Example 49, N-Cyclohexyl-N-methyl-3-phenyl-3-(2-thienyl)propanamine hydrochloride]: the antagonist dissociation constant (Kb) was found to be 590 nM.
On the same count and under the same terms, with `CCN(CC)CCC(c1ccccc1)c1cccs1` (stereo not shown) [Example 50, fumarate] the figure was 154 nM; with `CC(C)N(C)CCC(c1ccccc1)c1cccs1` (stereo not shown) [Example 51, N-Isopropyl-N-methyl-3-phenyl-3-(2-thienyl)propanamine hydrochloride], 118 nM; with `c1ccc(C(CCN2CCCC2)c2cccs2)cc1` (stereo not shown) [Example 52, N-[3-Phenyl-3-(2-thienyl)propyl]pyrrolidine fumarate], 350 nM.
As for `c1ccc(C(CCN2CCCCC2)c2cccs2)cc1` (stereo not shown) [Example 53, N-[3-Phenyl-3-(2-thienyl)propyl]piperidine hydrochloride], the Kb came out at 154 nM.
Still for that read-out and setting: the result for `CC(C)N(CCC(c1ccccc1)c1cccn1C)C(C)C` (stereo not shown) [Example 59, N,N-Diisopropyl-3-(N-methylpyrrol-2-yl)-3-phenylpropanamine fumarate] reads 690 nM; that for `Cn1cccc1C(CCN1CCCC1)c1ccccc1` (stereo not shown) [Example 60, 3-(N-Methylpyrrol-2-yl)-3-phenyl-1-pyrrolidinopropane fumarate], 707 nM.
